Molecular target: T1, Dual specificity mitogen-activated protein kinase kinase 7 (Homo sapiens, UniProt O14733)
T1 sequence (O14733 whole entry): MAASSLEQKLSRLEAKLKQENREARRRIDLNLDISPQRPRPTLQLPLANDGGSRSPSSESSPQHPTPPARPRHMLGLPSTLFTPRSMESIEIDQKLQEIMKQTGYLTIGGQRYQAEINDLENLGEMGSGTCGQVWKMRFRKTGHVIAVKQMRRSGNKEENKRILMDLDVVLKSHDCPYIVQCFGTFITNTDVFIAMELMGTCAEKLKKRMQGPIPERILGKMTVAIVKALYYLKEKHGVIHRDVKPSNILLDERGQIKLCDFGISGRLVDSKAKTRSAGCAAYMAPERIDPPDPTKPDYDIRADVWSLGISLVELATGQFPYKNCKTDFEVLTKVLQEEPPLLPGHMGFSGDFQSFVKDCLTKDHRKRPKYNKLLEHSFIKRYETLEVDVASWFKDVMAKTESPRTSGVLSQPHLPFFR
Assay: Inhibition of MAP2K7 (unknown origin) using JNK peptide KFMMTPYVVTR incubated for 30 mins measured by multimode reader based ADP-glo assay

IC50: 6.5 nM
Structure (SMILES): C#CCNC(=O)c1cc(NC(=O)C=C)cc(-c2n[nH]c3ccccc23)c1

Source: ChEMBL document CHEMBL4699503, “Structural basis for producing selective MAP2K7 inhibitors” (Bioorg Med Chem Lett, 2020)
